pIC50: −log10 of the molar value. Where “and” joins values, the source holds several entries; their conditions need not be identical. Identical values can stand only once. Calls of active or inactive are those of the source. The calls are words filed in the database; no cut-off is given here.
Columns and labels:
HepG2 [1] = test: Antiproliferative activity against human HepG2 cells incubated for 72 hrs by CCK8 assay; type: functional, cell-based
[2] = target: T1, DNA topoisomerase 2-alpha (Homo sapiens, UniProt P11388); test: Inhibition of human topoisomerase 2-alpha assessed as reduction in relaxation of pBR322 DNA at 100 uM measured after 30 mins by agarose gel electrophoresis method relative to control
T1 sequence (P11388 whole entry): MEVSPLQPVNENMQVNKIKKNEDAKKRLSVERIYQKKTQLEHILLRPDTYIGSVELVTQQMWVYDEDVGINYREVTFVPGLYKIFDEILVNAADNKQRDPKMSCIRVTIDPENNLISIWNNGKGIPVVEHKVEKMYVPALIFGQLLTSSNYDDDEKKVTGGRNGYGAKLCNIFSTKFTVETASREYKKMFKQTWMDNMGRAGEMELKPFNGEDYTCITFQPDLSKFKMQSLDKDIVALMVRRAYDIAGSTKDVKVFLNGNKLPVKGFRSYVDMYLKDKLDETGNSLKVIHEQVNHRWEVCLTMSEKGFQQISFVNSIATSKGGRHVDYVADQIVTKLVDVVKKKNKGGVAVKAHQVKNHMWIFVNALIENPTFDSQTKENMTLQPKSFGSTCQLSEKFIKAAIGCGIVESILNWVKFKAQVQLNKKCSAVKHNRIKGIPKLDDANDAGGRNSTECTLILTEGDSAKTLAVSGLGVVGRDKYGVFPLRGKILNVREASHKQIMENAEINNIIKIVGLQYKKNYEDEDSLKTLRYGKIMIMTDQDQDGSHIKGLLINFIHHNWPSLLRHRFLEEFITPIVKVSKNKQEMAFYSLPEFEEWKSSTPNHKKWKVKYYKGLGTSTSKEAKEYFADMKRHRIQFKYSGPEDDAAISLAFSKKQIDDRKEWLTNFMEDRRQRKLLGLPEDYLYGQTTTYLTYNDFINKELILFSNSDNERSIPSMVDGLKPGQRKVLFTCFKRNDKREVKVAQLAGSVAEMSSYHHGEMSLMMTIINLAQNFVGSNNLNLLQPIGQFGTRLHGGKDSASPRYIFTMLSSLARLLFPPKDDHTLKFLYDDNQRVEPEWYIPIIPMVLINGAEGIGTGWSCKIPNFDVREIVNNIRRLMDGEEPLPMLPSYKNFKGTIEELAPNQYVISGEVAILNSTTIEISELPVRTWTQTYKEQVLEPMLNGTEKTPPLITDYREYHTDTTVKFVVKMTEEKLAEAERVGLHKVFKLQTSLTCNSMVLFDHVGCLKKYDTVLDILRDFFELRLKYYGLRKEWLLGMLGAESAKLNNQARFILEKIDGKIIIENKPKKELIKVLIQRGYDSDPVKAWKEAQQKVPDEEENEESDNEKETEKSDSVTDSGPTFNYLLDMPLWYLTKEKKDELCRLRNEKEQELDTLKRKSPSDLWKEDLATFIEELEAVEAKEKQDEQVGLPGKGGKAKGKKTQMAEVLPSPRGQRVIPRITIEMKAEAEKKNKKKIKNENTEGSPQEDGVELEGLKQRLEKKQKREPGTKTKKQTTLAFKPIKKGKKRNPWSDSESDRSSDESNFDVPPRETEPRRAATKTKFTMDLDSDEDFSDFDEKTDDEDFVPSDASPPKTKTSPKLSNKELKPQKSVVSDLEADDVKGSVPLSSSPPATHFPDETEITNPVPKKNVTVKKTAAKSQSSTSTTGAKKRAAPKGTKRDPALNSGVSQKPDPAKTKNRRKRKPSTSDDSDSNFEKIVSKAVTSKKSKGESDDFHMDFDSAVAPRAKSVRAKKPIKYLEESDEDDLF

MDA-MB-231 = test: Antiproliferative activity against human MDA-MB-231 cells incubated for 72 hrs by CCK8 assay; type: functional, cell-based
[3] = target: T1, DNA topoisomerase 2-alpha; test: Inhibition of human topoisomerase 2-alpha assessed as reduction in relaxation of pBR322 DNA at 25 uM measured after 30 mins by agarose gel electrophoresis method relative to control
[4] = target: T1, DNA topoisomerase 2-alpha; test: Inhibition of human topoisomerase 2-alpha assessed as reduction in relaxation of pBR322 DNA measured after 30 mins by agarose gel electrophoresis method
[5] = Antiproliferative activity against human HL7702 cells incubated for 72 hrs by CCK8 assay; type: toxicity, cell-based; settings: HL7702 (L02) cells
[6] = target: T1, DNA topoisomerase 2-alpha; test: Poison activity at human topoisomerase 2-alpha assessed as linear DNA formation at 100 to 200 microM; settings: dose 100-200 µM
[7] = Selectivity index, ratio of IC50 for human HL-7702 cells to IC50 for human HepG2 cells; type: toxicity; settings: HL-7702 cells versus HepG2 cells, read-out: Ratio IC50
[8] = Selectivity index, ratio of IC50 for human BEAS-2B cells to IC50 for human HepG2 cells; type: toxicity; settings: BEAS-2B cells versus HepG2 cells, read-out: Ratio IC50
[9] = Selectivity index, ratio of IC50 for human BEAS-2B cells to IC50 for human HCT-116 cells; type: toxicity; settings: BEAS-2B cells versus HCT-116 cells, read-out: Ratio IC50
[10] = Selectivity index, ratio of IC50 for human HL-7702 cells to IC50 for human PC-3 cells; type: toxicity; settings: HL-7702 cells versus PC-3 cells, read-out: Ratio IC50
Homo sapiens [11] = species: Homo sapiens; test: Selectivity index, ratio of IC50 for human CCL-226 cells to IC50 for human MDA-MB-231 cells
PC-3 = test: Antiproliferative activity against human PC-3 cells incubated for 72 hrs by CCK8 assay; type: functional, cell-based; settings: PC-3, 72 h
HCT-116 = test: Antiproliferative activity against human HCT-116 cells incubated for 72 hrs by CCK8 assay; type: functional, cell-based; settings: HCT-116, 72 h
[12] = Selectivity index, ratio of IC50 for human BEAS-2B cells to IC50 for human MDA-MB-231 cells; type: toxicity; settings: BEAS-2B cells versus MDA-MB-231 cells, read-out: Ratio IC50
[13] = target: T1, DNA topoisomerase 2-alpha; test: Inhibition of human topoisomerase 2-alpha using pBR322 DNA as substrate incubated for 30 mins in presence of 0.5 to 5 mM ATP (reference value: 2.9 microM)
[14] = target: T1, DNA topoisomerase 2-alpha; test: Inhibition of human topoisomerase 2-alpha using pBR322 DNA as substrate incubated for 1 hr in presence of ATP by malachite green phosphate method
Homo sapiens [15] = species: Homo sapiens; test: Selectivity index, ratio of IC50 for human CCL-226 cells to IC50 for human HeLa cells
A549 = test: Antiproliferative activity against human A549 cells incubated for 72 hrs by CCK8 assay; type: functional, cell-based; settings: A549, 72 h
[16] = Antiproliferative activity against human BEAS-2B cells incubated for 72 hrs by CCK8 assay; type: toxicity, cell-based
[17] = Selectivity index, ratio of IC50 for human BEAS-2B cells to IC50 for human PC-3 cells; type: toxicity; settings: BEAS-2B cells versus PC-3 cells, read-out: Ratio IC50
[18] = Antiproliferative activity against human CCL-226 cells incubated for 72 hrs by CCK8 assay; type: toxicity, cell-based
HeLa = test: Antiproliferative activity against human HeLa cells incubated for 72 hrs by CCK8 assay; type: functional, cell-based
Homo sapiens [19] = species: Homo sapiens; test: Selectivity index, ratio of IC50 for human CCL-226 cells to IC50 for human HCT-116 cells
[20] = target: T1, DNA topoisomerase 2-alpha; test: Inhibition of human topoisomerase 2-alpha assessed as DNA intercalation at 100 to 200 uM using pBR322 DNA as substrate measured after 30 mins by agarose gel electrophoresis analysis; settings: dose 100-200 µM
[21] = Selectivity index, ratio of IC50 for human HL-7702 cells to IC50 for human HCT-116 cells; type: toxicity; settings: HL-7702 cells versus HCT-116 cells, read-out: Ratio IC50
[22] = Selectivity index, ratio of IC50 for human HL-7702 cells to IC50 for human HeLa cells; type: toxicity; settings: HL-7702 cells versus HeLa cells, read-out: Ratio IC50
Homo sapiens [23] = species: Homo sapiens; test: Selectivity index, ratio of IC50 for human CCL-226 cells to IC50 for human PC-3 cells
DNA topoisomerase 2-beta = DNA topoisomerase 2-beta (Homo sapiens, UniProt Q02880); test: Inhibition of human topoisomerase 2-beta assessed as reduction in relaxation of pBR322 DNA measured after 30 mins by agarose gel electrophoresis method
Chain of DNA topoisomerase 2-beta (Q02880 whole entry): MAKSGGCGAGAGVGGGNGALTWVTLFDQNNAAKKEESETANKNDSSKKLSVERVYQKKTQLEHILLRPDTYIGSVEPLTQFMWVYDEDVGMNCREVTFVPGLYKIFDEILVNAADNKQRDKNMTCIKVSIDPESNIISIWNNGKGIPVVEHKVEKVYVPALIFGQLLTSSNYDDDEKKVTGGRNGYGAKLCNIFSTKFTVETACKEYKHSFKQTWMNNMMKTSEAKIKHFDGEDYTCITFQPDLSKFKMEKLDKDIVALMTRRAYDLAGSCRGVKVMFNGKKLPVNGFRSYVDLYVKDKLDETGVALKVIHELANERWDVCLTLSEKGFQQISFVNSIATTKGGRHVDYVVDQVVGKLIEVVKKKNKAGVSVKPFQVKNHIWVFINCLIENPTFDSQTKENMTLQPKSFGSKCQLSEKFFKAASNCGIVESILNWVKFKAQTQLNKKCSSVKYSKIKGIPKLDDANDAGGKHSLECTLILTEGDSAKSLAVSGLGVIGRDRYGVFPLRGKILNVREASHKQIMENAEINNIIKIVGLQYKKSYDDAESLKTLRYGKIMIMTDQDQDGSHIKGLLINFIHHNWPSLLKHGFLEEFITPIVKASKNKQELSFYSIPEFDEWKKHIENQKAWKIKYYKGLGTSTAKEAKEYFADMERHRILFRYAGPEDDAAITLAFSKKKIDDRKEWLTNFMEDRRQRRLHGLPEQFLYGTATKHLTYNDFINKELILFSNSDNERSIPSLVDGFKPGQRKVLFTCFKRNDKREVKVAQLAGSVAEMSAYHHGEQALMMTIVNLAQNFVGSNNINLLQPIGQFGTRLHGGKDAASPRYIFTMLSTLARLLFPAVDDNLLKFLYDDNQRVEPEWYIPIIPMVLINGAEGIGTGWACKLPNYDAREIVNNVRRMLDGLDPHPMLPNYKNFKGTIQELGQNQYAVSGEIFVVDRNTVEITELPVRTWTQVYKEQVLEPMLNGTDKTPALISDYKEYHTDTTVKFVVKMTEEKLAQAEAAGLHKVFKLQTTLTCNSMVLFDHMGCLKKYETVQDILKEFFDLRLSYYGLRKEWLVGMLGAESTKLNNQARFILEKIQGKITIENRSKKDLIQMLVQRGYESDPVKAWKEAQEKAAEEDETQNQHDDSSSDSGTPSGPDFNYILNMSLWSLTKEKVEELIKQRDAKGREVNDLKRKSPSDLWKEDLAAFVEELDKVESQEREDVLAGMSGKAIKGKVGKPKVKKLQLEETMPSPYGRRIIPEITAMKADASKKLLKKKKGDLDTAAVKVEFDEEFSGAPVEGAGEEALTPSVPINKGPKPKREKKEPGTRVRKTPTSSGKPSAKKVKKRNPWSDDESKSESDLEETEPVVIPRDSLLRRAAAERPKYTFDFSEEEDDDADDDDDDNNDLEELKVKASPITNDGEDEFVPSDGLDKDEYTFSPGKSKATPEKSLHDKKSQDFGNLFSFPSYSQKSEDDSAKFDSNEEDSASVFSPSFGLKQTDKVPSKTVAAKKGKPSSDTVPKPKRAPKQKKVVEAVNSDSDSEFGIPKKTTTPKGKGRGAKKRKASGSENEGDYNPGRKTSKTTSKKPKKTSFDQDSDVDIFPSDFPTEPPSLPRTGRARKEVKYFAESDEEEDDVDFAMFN

[24] = Selectivity index, ratio of IC50 for human HL-7702 cells to IC50 for human MDA-MB-231 cells; type: toxicity; settings: HL-7702 cells versus MDA-MB-231 cells, read-out: Ratio IC50
[25] = Selectivity index, ratio of IC50 for human BEAS-2B cells to IC50 for human HeLa cells; type: toxicity; settings: BEAS-2B cells versus HeLa cells, read-out: Ratio IC50
[26] = Selectivity index, ratio of IC50 for human BEAS-2B cells to IC50 for human A549 cells; type: toxicity; settings: BEAS-2B cells versus A549 cells, read-out: Ratio IC50
[27] = Selectivity index, ratio of IC50 for human HL-7702 cells to IC50 for human A549 cells; type: toxicity; settings: HL-7702 cells versus A549 cells, read-out: Ratio IC50
Homo sapiens [28] = species: Homo sapiens; test: Selectivity index, ratio of IC50 for human CCL-226 cells to IC50 for human A549 cells
Homo sapiens [29] = species: Homo sapiens; test: Selectivity index, ratio of IC50 for human CCL-226 cells to IC50 for human HepG2 cells
HepG2 [30] = test: Upregulation of gamma-H2AX level in human HepG2 cells incubated for 4 hrs by Western blotting analysis; type: functional, cell-based
HepG2 [31] = test: Induction of cell cycle arrest in human HepG2 cells assessed as accumulation of cells at G2/M phase at 1 uM incubated for 24 hrs by PI staining based flow cytometry analysis (reference value: 17.5%); type: functional
HepG2 [32] = test: Induction of apoptosis in human HepG2 cells assessed as necrotic cells at 5 uM incubated for 24 hrs by annexin-V FITC and PI staining based flow cytometry analysis (reference value: 0.2%); type: functional
HepG2 [33] = test: Induction of cell cycle arrest in human HepG2 cells assessed as accumulation of cells at G1 phase at 1 uM incubated for 24 hrs by PI staining based flow cytometry analysis (reference value: 54%); type: functional
[34] = Toxicity in C57BL/6J mouse assessed as change in body weight at 500 mg/kg administered via gavage twice at day 1 and measured for 7 days; type: organism-based; settings: in vivo, po, 168 h, time 7 day
[35] = Toxicity in C57BL/6J mouse assessed as animal death at 500 mg/kg administered via gavage twice at day 1 and measured for 7 days; type: organism-based; settings: in vivo, po, time 7 day, read-out: Activity
HepG2 [36] = test: Induction of apoptosis in human HepG2 cells assessed as early apoptotic cells at 5 uM incubated for 24 hrs by annexin-V FITC and PI staining based flow cytometry analysis (reference value: 3.7%); type: functional
HepG2 [37] = test: Induction of apoptosis in human HepG2 cells assessed as viable cells at 5 uM incubated for 24 hrs by annexin-V FITC and PI staining based flow cytometry analysis (reference value: 93.8%); type: functional; settings: read-out: Activity
HepG2 [38] = test: Induction of cell cycle arrest in human HepG2 cells assessed as accumulation of cells at S phase at 1 uM incubated for 24 hrs by PI staining based flow cytometry analysis (reference value: 28.2%); type: functional
HepG2 [39] = test: Induction of apoptosis in human HepG2 cells assessed as late apoptotic cells at 5 uM incubated for 24 hrs by annexin-V FITC and PI staining based flow cytometry analysis (reference value: 2.3%); type: functional

SMILES	pIC50 (HepG2 [1]; Homo sapiens, HepG2, 72 h)	inhibition [2]	pIC50 (MDA-MB-231; Homo sapiens, MDA-MB-231, 72 h)	inhibition [3]	pIC50 [4]	IC50 at 72 h [5] [µM]	selectivity ratio [7]	selectivity ratio [8]	selectivity ratio [9]	selectivity ratio [10]	Ratio IC50 (Homo sapiens [11])	pIC50 (PC-3)	pIC50 (HCT-116)	selectivity ratio [12]	Ratio IC50 (Homo sapiens [15])	pIC50 (A549)	IC50 at 72 h [16] [µM]	selectivity ratio [17]	IC50 at 72 h [18] [µM]	pIC50 (HeLa)	other results
Oc1cc(O)cc(/C=C/c2cc(-c3ccoc3)ccc2O)c1	4.69	82.1%	4.70	21.3%	4.22	–	–	–	–	–	–	–	–	–	–	–	–	–	–	–	–
O=C(/C=C/c1ccccc1)Nc1ccc(-c2ccc3cc(O)ccc3c2)cc1	6.15	81%	6.10	86.2%	5.48	> 50	> 28.1	> 28.1	> 28.1	> 28.1	> 28.1	6.05	6.22	> 28.1	> 28.1	6.00	26.9	> 28.1	> 50	6.30	Activity [6]: inactive; pIC50 [13]: 5.07; inhibition [14]: Dose-Dependent Effect; Ratio IC50 (Homo sapiens [19]): > 28.1; inhibition [20]: inactive; selectivity ratio [21]: > 28.1; selectivity ratio [22]: > 28.1; Ratio IC50 (Homo sapiens [23]): > 28.1; pIC50 (DNA topoisomerase 2-beta): 4.76; selectivity ratio [24]: > 28.1; selectivity ratio [25]: > 28.1; selectivity ratio [26]: > 28.1; selectivity ratio [27]: > 28.1; Ratio IC50 (Homo sapiens [28]): > 28.1; Ratio IC50 (Homo sapiens [29]): > 28.1; Activity (HepG2 [30]): inactive
COc1cc([C@@H]2c3cc4c(cc3[C@@H](O[C@@H]3O[C@@H]5CO[C@@H](C)O[C@H]5[C@H](O)[C@H]3O)[C@H]3COC(=O)[C@H]23)OCO4)cc(OC)c1O [ETOPOSIDE]	5.09	43.3%	5.25	–	–	39.1	–	–	–	–	–	5.52	5.62	–	–	4.82	21	–	20.8	5.82	Activity ([6]; filed as activator): Active; Activity (HepG2 [31]): 25.2%; Activity (HepG2 [32]): 0.6%; Activity (HepG2 [33]): 1.1%; Activity [34]: Toxic; mortality at 168 h [35]: 33.3%; Activity (HepG2 [36]): 10.7%; viability at 5 µM (HepG2 [37]): 76.9%; inhibition [20]: inactive; Activity (HepG2 [38]): 73.7%; Activity (HepG2 [39]): 11.8%; Activity (HepG2 [30]): Active
O=C(/C=C/c1ccccc1)Nc1ccc(/C=C/c2cc(O)cc(O)c2)cc1	5.62	82.6% and 76.1%	5.39	71.2% and 61.6%	4.78	37.8	> 9.2	> 9.2	> 9.2	> 9.2	> 9.2	5.64	5.68	> 9.2	> 9.2	5.39	> 50	> 9.2	> 50	5.72	pIC50 (HepG2 [1]; hepg2): 5.54; Ratio IC50 (Homo sapiens [19]): > 9.2; pIC50 (MDA-MB-231; mda-mb-231): 5.44; selectivity ratio [21]: > 9.2; selectivity ratio [22]: > 9.2; Ratio IC50 (Homo sapiens [23]): > 9.2; pIC50 (DNA topoisomerase 2-beta): 3.71; selectivity ratio [24]: > 9.2; selectivity ratio [25]: > 9.2; selectivity ratio [26]: > 9.2; selectivity ratio [27]: > 9.2; Ratio IC50 (Homo sapiens [28]): > 9.2; Ratio IC50 (Homo sapiens [29]): > 9.2
CCCNC(=O)/C=C/c1ccc(/C=C/c2cc(O)cc(O)c2)cc1	4.63	65.9%	5.11	26.8%	–	–	–	–	–	–	–	–	–	–	–	–	–	–	–	–	–
